Measurements published in patent publication US20260184692A1, “HETEROCYCLIC COMPOUNDS, PREPARATION METHODS AND USES THEREOF” (InventisBio Co., Ltd., priority 2022, published 2026).

Tested on: OVCAR3 Cells
Assay: OVCAR3 Cell Viability Assay (CellTiter-Glo)
Assay type: cell-based
Details: Homo sapiens, OVCAR-3, 144 h, 6 days incubation, read-out: OVCAR3 CTG IC50
Experimental: OVCAR3 Cells (ATCC, Cat #HTB-161) were seeded at a density of 2000 cells/well in a 96-well clear bottom plate (Greiner, Cat #655098) in 100 μL of complete media (RPMI1640+20% FBS+0.01 mg/mL human insulin). One hundred microliter of complete media was added into the blank well (column 1) for low control. Cells were allowed to adhere to the plate overnight in the incubator at 37° C., 5% CO2. On the following day, 0.5 μL of serially-diluted compounds were added to the cells (columns 2-10) and incubated for 6 days at 37 C, 5% CO2 (final 0.5% DMSO concentration); 0.5 μL of DMSO solution was added into the wells (column 11) for high control. Cell viability was detected according to the CellTiter-Glo Luminescent Cell Viability Assay Kit (Promega, Cat #G7573). Luminescence was recorded on the Tecan Spark plate reader. Inhibition rate (IR) of the tested compounds was determined by the following formula: IR (%)=(1−(RLUcompound−RLUlow control)/(RLUhigh control−RLUlow control))×100%. The IC50 value was calculated using the non-linear regression equation: Y=Bottom+(Top−Bottom)/(1+10^((Log IC50−X)×HillSlope)), where X is Log of compound concentration, Y is percent inhibition (IR (%)), Top and Bottom are plateaus in same units as Y.

Structure (SMILES)	IC50 [nM]
O=C(Nc1ccc2ncn(CC(F)(F)F)c2c1)c1ccc(NS(=O)(=O)CCO)cc1N1CCC2(CC1)CC2 [Compound 2]	< 200
Cc1cc(NC(=O)c2ccc(NS(=O)(=O)CCO)cc2N2C[C@H]3CCC[C@H]3C2)nc(N2CCC(F)(F)CC2)n1 [Compound 8]	< 200
Cc1cc(NC(=O)c2ccc(NS(=O)(=O)CCO)cc2N2CC3CCC(C2)O3)nc(N2CCC(F)(F)CC2)n1 [Compound 10]	200 to 2000
O=C1c2ccc(NS(=O)(=O)CCO)cc2C2(CCC3(CC3)CC2)CN1c1cccc(CN2CC(F)(F)C2)n1 [Compound 18]	< 200
O=C1c2ccc(NS(=O)(=O)CCO)cc2C2(CCC3(CC3)CC2)CN1c1cccc(CN2CCC(F)(F)C2)n1 [Compound 19]	< 200
Cn1cc(N2CC3(CCC4(CC4)CC3)c3cc(NS(=O)(=O)CCO)ccc3C2=O)nc1N1CCC(F)(F)CC1 [Compound 20]	200 to 2000
O=C1c2ccc(NS(=O)(=O)CCO)cc2C2(CCC3(CC3)CC2)CN1c1cccc(OC2CC(F)(F)C2)n1 [Compound 24]	200 to 2000
CC(c1cccc(N2CC3(CCC4(CC4)CC3)c3cc(NS(=O)(=O)CCO)ccc3C2=O)n1)N1CCC(F)(F)C1 (stereo not drawn) [Compound 30]	200 to 2000
O=C1c2ccc(NS(=O)(=O)CCO)cc2C2(CCC3(CC3)CC2)CN1c1ccnc(N2CC(F)(F)C2)n1 [Compound 33]	200 to 2000
Cc1cc(N2CC3(CCC4(CC4)CC3)c3cc(NS(=O)(=O)CCO)ccc3C2=O)nc(N2CCC(F)(F)CC2)n1 [Compound 35]	200 to 2000
O=C1c2ccc(NS(=O)(=O)CCO)cc2C2(CCC3(CC3)CC2)CN1c1csc(N2CCC(F)(F)CC2)n1 [Compound 36]	> 2000
CC1CCN(c2nc(N3CC4(CCC5(CC5)CC4)c4cc(NS(=O)(=O)CCO)ccc4C3=O)ccc2F)CC1 [Compound 37]	200 to 2000
CC1(F)CCN(c2nc(N3CC4(CCC5(CC5)CC4)c4cc(NS(=O)(=O)CCO)ccc4C3=O)ccc2F)CC1 [Compound 40]	< 200
O=C1c2cc(F)c(NS(=O)(=O)CCO)cc2C2(CCC3(CC3)CC2)CN1c1ccnc(N2CCC(F)(F)CC2)n1 [Compound 41]	200 to 2000
O=C1c2ccc(NS(=O)(=O)CCO)cc2C2(CCC3(CC3)CC2)CN1c1ccc(F)c(NC2CC(F)(F)C2)n1 [Compound 42]	< 200
CN1CCN(c2nc(N3CC4(CCC5(CC5)CC4)c4cc(NS(=O)(=O)CCO)ccc4C3=O)ccc2F)CC1 [Compound 46]	200 to 2000
O=C1c2ccc(NS(=O)(=O)CCO)cc2C2(CCC3(CC3)CC2)CN1c1ccc(F)c(N2CCCC(F)(F)CC2)n1 [Compound 47]	< 200
O=C1c2ccc(NS(=O)(=O)CCO)cc2C2(CCC3(CC3)CC2)CN1c1cccc(NC2CC(F)(F)C2)n1 [Compound 48]	< 200
CN(c1nc(N2CC3(CCC4(CC4)CC3)c3cc(NS(=O)(=O)CCO)ccc3C2=O)ccc1C#N)C1CC(F)(F)C1 [Compound 49]	< 200
CN(c1nccc(N2CC3(CCC4(CC4)CC3)c3cc(NS(=O)(=O)CCO)ccc3C2=O)n1)C1CCC(F)(F)C1 (stereo not drawn) [Compound 50]	200 to 2000

Structure (SMILES)	IC50 [nM]
Cc1ccc(N2CC3(CCC4(CC4)CC3)c3cc(NS(=O)(=O)CCO)ccc3C2=O)nc1N1CCC(F)(F)CC1 [Compound 52]	< 200
O=C1c2ccc(NS(=O)(=O)CCO)cc2C2(CCC3(CC3)CC2)CN1c1cncc(N2CCC(F)(F)CC2)n1 [Compound 54]	< 200
CC(c1nc(N2CC3(CCC4(CC4)CC3)c3cc(NS(=O)(=O)CCO)ccc3C2=O)ccc1C#N)N1CC(F)(F)C1 (stereo not drawn) [Compound 55]	> 2000
N#Cc1ccc(N2CC3(CCC4(CC4)CC3)c3cc(NS(=O)(=O)CCO)ccc3C2=O)nc1CN1CC(F)(F)C1 [Compound 57]	> 2000
O=C1c2ccc(NS(=O)(=O)CCO)cc2C2(CCC3(CC3)CC2)CN1c1cncc(NC2CC(F)(F)C2)n1 [Compound 58]	200 to 2000
N#Cc1ccc(N2CC3(CCC4(CC4)CC3)c3cc(NS(=O)(=O)CCO)cnc3C2=O)nc1N1CCC(F)(F)CC1 [Compound 59]	200 to 2000
O=C1c2ccc(NS(=O)(=O)CCO)cc2C2(CCC3(CC3)CC2)CN1c1ccc2ncn(CC(F)(F)F)c2n1 [Compound 60]	200 to 2000
O=C1c2ccc(NS(=O)(=O)CCO)cc2C2(CCC3(CC3)CC2)CN1c1ccc(F)c(OC2CC(F)(F)C2)n1 [Compound 61]	200 to 2000
CC1CN(c2nc(N3CC4(CCC5(CC5)CC4)c4cc(NS(=O)(=O)CCO)ccc4C3=O)ccc2C#N)CCO1 (stereo not drawn) [Compound 63]	< 200
O=C1c2ncc(NS(=O)(=O)CCO)cc2C2(CCC3(CC3)CC2)CN1c1ccnc(N2CCC(F)(F)CC2)n1 [Compound 64]	200 to 2000
O=C1c2cc(F)c(NS(=O)(=O)CCO)cc2C2(CCC3(CC3)CC2)CN1c1ccnc(NC2CC(F)(F)C2)n1 [Compound 65]	200 to 2000
O=C1c2ccc(NS(=O)(=O)CCO)cc2C2(CCC3(CC3)CC2)CN1c1ccnc(NC2CCCC2)n1 [Compound 66]	< 200
O=C1c2ccc(NS(=O)(=O)CCO)cc2C2(CCC(F)(F)CC2)CN1c1ccnc(N2CCC(F)(F)CC2)n1 [Compound 67]	200 to 2000
O=C1c2ccc(NS(=O)(=O)CCO)nc2C2(CCC3(CC3)CC2)CN1c1ccnc(N2CCC(F)(F)CC2)n1 [Compound 68]	> 2000
N#Cc1ccc(N2CC3(CCC4(CC4)CC3)c3nc(NS(=O)(=O)CCO)ccc3C2=O)nc1N1CCC(F)(F)CC1 [Compound 70]	200 to 2000
Cc1ncc(N2CC3(CCC4(CC4)CC3)c3cc(NS(=O)(=O)CCO)ccc3C2=O)nc1N1CCC(F)(F)CC1 [Compound 73]	< 200
CC1(C)CCC2(CC1)CN(c1ccnc(NC3CC(F)(F)C3)n1)C(=O)c1ccc(NS(=O)(=O)CCO)cc12 [Compound 74]	< 200
O=C1c2ccc(NS(=O)(=O)CCO)cc2C2(CCC(=C(F)F)CC2)CN1c1ccnc(N2CCC(F)(F)CC2)n1 (stereo not drawn) [Compound 77]	200 to 2000
N#Cc1ccc(N2CC3(CCC(F)(F)CC3)c3cc(NS(=O)(=O)CCO)ccc3C2=O)nc1N1CCC(F)(F)CC1 [Compound 78]	< 200
O=C1c2ccc(NS(=O)(=O)CCO)cc2C2(CCC3(CC3)CC2)CN1c1ccnc(N2CC3CCC2C3)n1 (stereo not drawn) [Compound 82]	200 to 2000

Structure (SMILES)	IC50 [nM]
O=C1c2ccc(NS(=O)(=O)CCO)cc2C2(CCC3(CC3)CC2)CN1c1ccc(=O)n(CC2CC(F)(F)C2)n1 [Compound 83]	200 to 2000
O=C1c2ccc(NS(=O)(=O)CCO)cc2C2(CCC3(CC3)CC2)CN1c1ccnc(NCCC(F)(F)F)n1 [Compound 84]	< 200
N#Cc1ccc(N2CC3(CCC4(CC4)CC3)c3cc(NS(=O)(=O)CCO)ccc3C2=O)nc1NCCC(F)(F)F [Compound 93]	< 200
CC1(CNc2nccc(N3CC4(CCC5(CC5)CC4)c4cc(NS(=O)(=O)CCO)ccc4C3=O)n2)COC1 [Compound 96]	200 to 2000
O=C1c2ccc(NS(=O)(=O)CCO)cc2C2(CCC(F)(F)CC2)CN1c1ccnc(NC2CC(F)(F)C2)n1 [Compound 97]	200 to 2000
N#Cc1ccc(N2CC3(CCC4(CC4)CC3)c3cc(NS(=O)(=O)CCO)ccc3C2=O)nc1S(=O)(=O)C1CCCC1 [Compound 100]	< 200
CC1(F)CCC2(CC1)CN(c1ccnc(N3CCC(F)(F)CC3)n1)C(=O)c1ccc(NS(=O)(=O)CCO)cc12 (stereo not drawn) [Compound 103]	200 to 2000
N#Cc1ccc(N2CC3(CCC(F)(F)CC3)c3cc(NS(=O)(=O)CCO)ccc3C2=O)nc1NC1CC(F)(F)C1 [Compound 104]	< 200
CC1(F)CCC2(CC1)CN(c1ccc(C#N)c(N3CCC(F)(F)CC3)n1)C(=O)c1ccc(NS(=O)(=O)CCO)cc12 (stereo not drawn) [Compound 105]	< 200
O=C1c2cnc(NS(=O)(=O)CCO)cc2C2(CCC3(CC3)CC2)CN1c1ccc(F)c(N2CCC(F)(F)CC2)n1 [Compound 107]	< 200
CC1(F)CCC2(CC1)CN(c1ccc(C#N)c(NC3CC(F)(F)C3)n1)C(=O)c1ccc(NS(=O)(=O)CCO)cc12 (stereo not drawn) [Compound 111]	200 to 2000
CC1(F)CCC2(CC1)CN(c1ccnc(NC3CC(F)(F)C3)n1)C(=O)c1ccc(NS(=O)(=O)CCO)cc12 (stereo not drawn) [Compound 112]	200 to 2000
CC(C)(C)NS(=O)(=O)c1cccc(N2CC3(CCC4(CC4)CC3)c3cc(NS(=O)(=O)CCO)ccc3C2=O)c1 [Compound 113]	< 200
N#Cc1ccc(N2CC3(CCC4(CCC4)CC3)c3cc(NS(=O)(=O)CCO)ccc3C2=O)nc1NC1CC(F)(F)C1 [Compound 115]	< 200
CCS(=O)(=O)Nc1ccc2c(c1)C1(CCC3(CC3)CC1)CN(c1ccc(C#N)c(S(=O)(=O)N3CC(F)(F)C3)c1)C2=O [Compound 118]	< 200
CC(C)(C)NS(=O)(=O)c1cc(N2CC3(CCC4(CC4)CC3)c3cc(NS(=O)(=O)CCO)ccc3C2=O)ccc1C#N [Compound 119]	< 200
CC1(C)CCC2(CC1)CN(c1ccc(C#N)c(NC3CC(F)(F)C3)n1)C(=O)c1cc(F)c(NS(=O)(=O)CCO)cc12 [Compound 121]	< 200
N#Cc1ccc(N2CC3(CCC4(CC4)CC3)c3cc(NS(=O)(=O)CCO)ccc3C2=O)nc1C(=O)N1CCCC1 [Compound 122]	200 to 2000
O=C1c2ccc(NS(=O)(=O)CCO)cc2C2(CCC3(CCC3)CC2)CN1c1ccnc(NC2CC(F)(F)C2)n1 [Compound 124]	< 200
N#Cc1ccc(N2CC3(CCC(F)(F)CC3)c3cc(NS(=O)(=O)CCO)c(F)cc3C2=O)nc1N1CCC(F)(F)CC1 [Compound 126]	< 200
